Data published in patent EP2151237A1, “PHARMACEUTICAL COMPOSITION COMBINING A NON-STEROIDAL ANTI-INFLAMMATORY AGENT AND AN ANTICONVULSANT AGENT” (priority 2007, dated 2008).

Columns and labels:
[1] = tested on: α2δ, which are ancillary subunits of voltage-activated calcium channels; details: cited from earlier work
other common receptors = details: benzodiazepine, glutamate, NMDA, α1, α2, β-adrenergic, muscarinic, nicotinic, dopaminergic, histaminic, serotoninergic, opiate, canabinoid receptors, voltage-dependent calcium or sodium channels; cited from earlier work
[2] = cited from earlier work
[3] = tested on: A-carrageenin-induced hyperalgesia; assay: A-carrageenin-induced peripheral inflammatory hyperalgesia in rat paw, paw latency (SLP); details: for ED50: Rattus norvegicus, po, 2 h, read-out: DE50 value; for peak effect / maximum effect time: time after administration, ipsilateral paw SLP
Description: In this study, an isobolographic analysis was conducted in order to test the interaction between Gabapentin and Meloxicam administered under three different conditions.
Sprague-Dawley male rats were used, with an approximate weight of 200-300 g. […] Rats were used once and they only received one dose of the drugs or the combination thereof.
Rats were placed in a spin cylinder to 4 rpm and one of their paws was connected to a computer terminal. After acclimatization for 1 hour, rats were administered 100 µl of 1% A-carrageenin solution on the plantar surface of one rear paw.
These fixed dosage ratios were selected by a DE50 value range for each drug and reciprocal ratio.
In order to determine the interaction nature, the dosage-derived relationship-response for the total dosage of Gabapentin and Meloxicam, was compared to the theoretical dose relationship-additive by a standard parallel line method.

[4] = Chromatographic testing of blood samples (plasma concentrations); type: in vivo, Sprague-Dawley male rats; details: blood samples taken after the assessments
Description: After such assessments, rats were anesthetized with halothane and blood samples were taken for chromatographic testing.

[5] = in its acid form; higher than Piroxicam; cited from earlier work
[6] = cited from earlier work; remark: listed apart in the source
rat stomachs = details: cited from earlier work
[7] = cited from earlier work; remark: listed apart in the source

Compound | affinity to α2δ proteins [1] | affinity to other common receptors (other common receptors) | time to maximum plasma concentrations ([2]; after the administration) [h] | binding to plasmatic proteins ([2]; plasma) [%] | ED50 [3] [mg/kg] | contralateral paw response latencies ([3]; non-swollen contralateral rear paw) | peak effect / maximum effect time [3] [min] | effect of additional presence of Meloxicam on plasma concentrations of Gabapentin [4] | membrane solubility relative to Piroxicam [5] [fold] | solubility in water [6] | gastric ulcerogenicity (rat stomachs) | concentration ([7]; approximately 50 minutes after the administration) [ng/mL] | adherence to plasmatic proteins ([7]; in vivo) [%] | part of the administered dose eliminated in urine ([7]; the rest is excreted in faeces)
NCC1(CC(=O)O)CCCCC1 [Gabapentin] | high affinity | no affinity | ≤ 3 | 3 | 19.2 | did not show any alteration | 120 | – | – | – | – | – | – | –
Cc1cnc(NC(=O)C2=C(O)c3ccccc3S(=O)(=O)N2C)s1 [Meloxicam, 4-hydroxy-2-methyl-N-(5-methyl-2-thiazolyl)-2H benzotiazine-3-carboxamide-1,1-dioxide] | – | – | – | – | 0.46 | – | 120 | does not alter | 10 | virtually insoluble | minimal gastric ulcerogenicity | 1600 | 99 | Around a half
